Experimental data published in ChEMBL document CHEMBL1142336, “Overcoming undesirable HERG potency of chemokine receptor antagonists using baseline lipophilicity relationships” (J Med Chem, 2008).

Tests used:
[1] = Lipophilicity, log D at pH 7.4; conditions: buffer
[2] = target: Voltage-gated inwardly rectifying potassium channel KCNH2 (Homo sapiens, UniProt Q12809); assay: Displacement of [3H]dofetilide from human recombinant ERG potassium channel expressed in HEK293 cells by patch clamp method
[3] = target: C-C chemokine receptor type 8 (Homo sapiens, UniProt P51685); assay: Antagonist activity at CCR8 receptor; type: functional
Chain of C-C chemokine receptor type 8 (P51685 whole entry): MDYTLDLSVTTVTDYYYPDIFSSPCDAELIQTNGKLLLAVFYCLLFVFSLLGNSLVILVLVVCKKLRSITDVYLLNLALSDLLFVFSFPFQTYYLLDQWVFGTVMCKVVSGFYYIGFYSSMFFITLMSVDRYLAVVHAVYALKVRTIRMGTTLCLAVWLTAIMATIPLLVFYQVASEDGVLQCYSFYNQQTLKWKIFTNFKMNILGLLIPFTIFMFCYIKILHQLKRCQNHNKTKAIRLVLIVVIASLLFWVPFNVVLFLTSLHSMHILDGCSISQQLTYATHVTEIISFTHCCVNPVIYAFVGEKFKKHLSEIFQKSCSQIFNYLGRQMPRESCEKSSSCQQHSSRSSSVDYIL

Chain of Voltage-gated inwardly rectifying potassium channel KCNH2 (Q12809 whole entry): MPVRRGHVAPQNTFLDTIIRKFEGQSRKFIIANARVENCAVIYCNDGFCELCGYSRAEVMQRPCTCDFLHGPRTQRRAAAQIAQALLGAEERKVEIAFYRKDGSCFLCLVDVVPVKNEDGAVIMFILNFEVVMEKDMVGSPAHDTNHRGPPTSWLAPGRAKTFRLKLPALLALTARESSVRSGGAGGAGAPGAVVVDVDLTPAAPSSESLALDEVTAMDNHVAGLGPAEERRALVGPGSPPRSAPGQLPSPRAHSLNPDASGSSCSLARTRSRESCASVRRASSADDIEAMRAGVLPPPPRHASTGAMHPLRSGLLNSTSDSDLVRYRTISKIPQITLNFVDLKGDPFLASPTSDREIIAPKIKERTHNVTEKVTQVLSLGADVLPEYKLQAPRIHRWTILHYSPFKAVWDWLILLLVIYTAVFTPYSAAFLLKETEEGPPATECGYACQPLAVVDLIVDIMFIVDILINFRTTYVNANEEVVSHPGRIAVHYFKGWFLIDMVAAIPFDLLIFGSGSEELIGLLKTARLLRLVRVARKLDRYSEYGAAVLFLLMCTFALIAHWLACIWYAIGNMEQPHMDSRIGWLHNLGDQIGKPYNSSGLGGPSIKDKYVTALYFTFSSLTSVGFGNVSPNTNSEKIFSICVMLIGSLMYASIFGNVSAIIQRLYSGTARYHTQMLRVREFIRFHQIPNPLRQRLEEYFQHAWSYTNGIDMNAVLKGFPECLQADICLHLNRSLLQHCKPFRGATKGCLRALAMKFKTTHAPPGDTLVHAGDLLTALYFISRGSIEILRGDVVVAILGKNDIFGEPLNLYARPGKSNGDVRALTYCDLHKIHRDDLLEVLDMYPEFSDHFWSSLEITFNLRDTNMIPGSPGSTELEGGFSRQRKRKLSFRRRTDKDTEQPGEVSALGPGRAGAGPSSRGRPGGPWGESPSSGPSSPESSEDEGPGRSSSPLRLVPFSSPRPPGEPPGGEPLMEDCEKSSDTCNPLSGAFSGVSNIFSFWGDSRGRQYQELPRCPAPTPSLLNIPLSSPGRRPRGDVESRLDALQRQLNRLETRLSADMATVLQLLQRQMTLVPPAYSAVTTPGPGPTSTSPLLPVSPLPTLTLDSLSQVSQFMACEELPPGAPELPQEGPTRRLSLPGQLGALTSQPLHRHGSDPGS

## O=C(c1ccc(Cl)cc1)N1CCC2(CCN(Cc3ccccc3Oc3ccccc3)CC2)CC1
[1]
  logD: 3.5

## COc1ccccc1Oc1ccccc1CN1CCC2(CC1)CCN(C(=O)c1cccc[n+]1[O-])CC2
[2]
  IC50: 1.91 µM
[1]
  logD: 0.5
[3]
  IC50: 0.0794 µM

## COc1ccccc1Oc1ccccc1CN1CCC2(CC1)CCN(C(=O)c1cc[n+]([O-])cc1)CC2
[1]
  logD: 0.5
[3]
  IC50: 0.115 µM

## COc1ccccc1Oc1ccccc1CN1CCC2(CC1)CCN(C(=O)c1ccncc1)CC2
[1]
  logD: 1.8
[3]
  IC50: 0.012 µM

## O=C(c1ccncc1)N1CCC2(CCN(Cc3ccccc3Oc3ccccc3)CC2)CC1
[3]
  IC50: 0.0331 µM

## COc1ccccc1Oc1cccc(CN2CCC3(CC2)CCN(C(=O)c2ccc(Cl)cc2)CC3)c1
[1]
  logD: 3.5
[3]
  IC50: 0.012 µM

## O=C(c1cc[n+]([O-])cc1)N1CCC2(CCN(Cc3cccc(Oc4ccccc4)c3)CC2)CC1
[1]
  logD: 1.2
[3]
  IC50: 0.166 µM

## O=C(c1ccncn1)N1CCC2(CCN(Cc3cccc(Oc4ccccc4)c3)CC2)CC1
[1]
  logD: 2.4
[3]
  IC50: 0.0275 µM

## O=C(c1ccc(O)cc1OC[C@@H](O)CN1CCC2(CC1)Cc1cc(Cl)ccc1O2)N1C[C@H](O)CO1
[2]
  IC50: 0.0251 µM
[1]
  logD: 1.55
